In patent publication US9073975B2, “Cyclic peptides, their preparation and their use as inhibitors of the platelet adhesion” (SANOFI, priority 2010, dated 2015) one finds IC50 data, which are given here for two molecules.

pIC50: −log10 of the molar value. Non-standard residues stand in square brackets, D forms with d. Residues, ends and D or L forms follow the SMILES beside them. Ac3c = NC1(C(=O)O)CC1; Ahp = NCCCCCCC(=O)O; GABA = NCCCC(=O)O

The assay has as its target T1, recombinant human vWF-A1 domain (Homo sapiens, UniProt P07359).
T1 construct: whole blood drawn from voluntary donors; made in house; host or cells: E. coli (vWF-A1); washed platelets from human donor blood (GPIb, endogenous)
Briefly: Static human platelet adhesion to recombinant human vWF-A1 domain. It is filed as cell-based. The following applies: washed calcein AM labeled human platelets, static conditions, 1.5 h adhesion; read-out: Activity (IC50 for inhibition of the binding of platelets to vWF A1 domain).

T1 sequence (P07359 17-652): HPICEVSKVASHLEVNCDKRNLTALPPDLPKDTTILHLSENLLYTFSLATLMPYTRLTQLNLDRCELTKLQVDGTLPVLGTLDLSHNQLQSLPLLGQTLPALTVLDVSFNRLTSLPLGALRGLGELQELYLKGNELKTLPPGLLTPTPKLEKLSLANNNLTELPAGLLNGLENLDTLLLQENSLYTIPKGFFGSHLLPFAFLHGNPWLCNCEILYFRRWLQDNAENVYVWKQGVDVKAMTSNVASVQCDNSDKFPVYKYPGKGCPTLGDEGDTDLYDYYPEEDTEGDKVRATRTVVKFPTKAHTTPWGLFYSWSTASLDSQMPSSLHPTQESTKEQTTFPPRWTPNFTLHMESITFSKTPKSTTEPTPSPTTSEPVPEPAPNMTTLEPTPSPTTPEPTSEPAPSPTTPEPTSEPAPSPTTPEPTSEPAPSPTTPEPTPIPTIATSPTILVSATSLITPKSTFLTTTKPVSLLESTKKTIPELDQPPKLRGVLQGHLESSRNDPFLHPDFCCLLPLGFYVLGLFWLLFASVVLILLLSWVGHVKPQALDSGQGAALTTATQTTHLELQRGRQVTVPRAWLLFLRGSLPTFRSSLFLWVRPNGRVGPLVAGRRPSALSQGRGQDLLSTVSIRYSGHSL
T1 sequence (P13224 26-206 partner): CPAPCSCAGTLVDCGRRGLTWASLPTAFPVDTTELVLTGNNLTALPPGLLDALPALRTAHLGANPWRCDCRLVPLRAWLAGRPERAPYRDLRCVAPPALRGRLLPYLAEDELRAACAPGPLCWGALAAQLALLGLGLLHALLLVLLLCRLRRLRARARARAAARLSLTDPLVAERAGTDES
T1 sequence (P14770 17-177 partner): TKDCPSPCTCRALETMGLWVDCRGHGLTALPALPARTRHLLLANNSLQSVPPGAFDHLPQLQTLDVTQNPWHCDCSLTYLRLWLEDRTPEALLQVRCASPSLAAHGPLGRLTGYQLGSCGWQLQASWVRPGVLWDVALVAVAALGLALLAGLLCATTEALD

The pIC50 is −log10 of the IC50, conventionally taken in molar units. Regarding `CSCC[C@@H]1NC(=O)[C@H](CCCNC(=N)N)NC(=O)[C@H](CCC(=O)O)NC(=O)[C@H]([C@@H](C)O)NC(=O)C2(CC2)NC(=O)CCCNC(=O)[C@H](CC(C)C)NC(=O)[C@H](CC(N)=O)NC(=O)[C@H](Cc2c[nH]cn2)NC(=O)[C@H](CC(C)C)NC(=O)[C@H](C)NC1=O` [Example 54, Cyclo[Leu-His-Asn-Leu-NH—(CH2)3—CO-Ac3-Thr-Glu-Arg-Met-Ala]] (cyclo(ALHNL[GABA][Ac3c]TERM)), the negative logarithm of the IC50 (pIC50) is 5.00 to 6.00.
As to `CSCC[C@@H]1NC(=O)[C@H](CCCNC(=N)N)NC(=O)[C@H](CCC(=O)O)NC(=O)[C@H]([C@@H](C)O)NC(=O)CCCCCCNC(=O)[C@H](CC(C)C)NC(=O)[C@H](CC(N)=O)NC(=O)[C@H](Cc2c[nH]cn2)NC(=O)[C@H](CC(C)C)NC(=O)[C@H](CCC(N)=O)NC1=O` [Example 55, Cyclo[Leu-His-Asn-Leu-NH—(CH2)6—CO-Thr-Glu-Arg-Met-Gln]] (cyclo([Ahp]TERMQLHNL)), the pIC50 was 5.00 to 6.00.
